The values below come from US10807970B2 (priority 2016, dated 2020).

For this assay, the target named is human σ1 receptor (Homo sapiens, UniProt Q99720). The assay is described as follows: Human σ1 receptor radioligand assay ([3H](+)-pentazocine, transfected HEK-293 membranes). The note with it: one class symbol for both Ki-σ1 (human σ1 receptor, A1) and Ki-μ (human μ-opioid receptor, A2). The assay is classed as binding. The arrangement: μ and σ1 dual binding: key to the marks not given beside the values. The method, then:
Human σ1 Receptor Radioligand Assay
To investigate binding properties of test compounds to human σ1 receptor, transfected HEK-293 membranes and [^3H](+)-pentazocine (Perkin Elmer, NET-1056), as the radioligand, were used. The assay was carried out with 7 μg of membrane suspension, 5 nM of [^3H](+)-pentazocine in either absence or presence of either buffer or 10 μM Haloperidol for total and non-specific binding, respectively. Binding buffer contained Tris-HCl 50 mM at pH 8. Plates were incubated at 37° C. for 120 minutes. After the incubation period, the reaction mix was then transferred to MultiScreen HTS, FC plates (Millipore), filtered and plates were washed 3 times with ice-cold 10 mM Tris-HCL (pH7.4). Filters were dried and counted at approximately 40% efficiency in a MicroBeta scintillation counter (Perkin-Elmer) using EcoScint liquid scintillation cocktail

The mark [1] stands for this setting: read-out: μ and σ1 dual binding.

Like-named read-outs stand apart in the source and are kept apart here. Where only a bound is given, the exact number is not on record here.

Chain of human σ1 receptor (Q99720 whole entry): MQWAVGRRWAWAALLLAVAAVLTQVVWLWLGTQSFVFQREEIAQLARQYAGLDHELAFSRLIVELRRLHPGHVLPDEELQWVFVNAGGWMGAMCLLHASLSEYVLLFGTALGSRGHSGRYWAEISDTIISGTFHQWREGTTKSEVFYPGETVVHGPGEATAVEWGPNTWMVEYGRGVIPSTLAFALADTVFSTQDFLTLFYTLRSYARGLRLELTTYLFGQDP

Turning to `CCOCCN1CCN(C2(C(=O)c3ccccn3)CCOC(C)(C)C2)CC1` (centres unmarked) [Example 67, (4-(4-(2-ethoxyethyl)piperazin-1-yl)-2,2-dimethyltetrahydro-2H-pyran-4-yl)(pyridin-2-yl)methanone], the Ki under setting [1] was > 500 nM. For the compound `C[C@H]1C[C@@](C(=O)c2ccccn2)(N2CCN(CCc3ccccc3F)CC2)CCO1` [Example 170], the Ki (μ and σ1 dual binding) is < 500 nM. Consider `CC(C)OCCN1CCC(C2(c3ccccn3)CCOC(C)(C)C2)CC1` (centres unmarked) [Example 75, 2-(4-(1-(2-isopropoxyethyl)piperidin-4-yl)-2,2-dimethyltetrahydro-2H-pyran-4-yl)pyridine], for which, for the setting “μ and σ1 dual binding”, the Ki is > 500 nM.

On to `CC(C)CN1CCN(C2(C(=O)c3ccccc3)CCOC(C)(C)C2)CC1` (centres unmarked) [Example 11, (4-(4-isobutylpiperazin-1-yl)-2,2-dimethyltetrahydro-2H-pyran-4-yl)(phenyl)methanone], for which the “μ and σ1 dual binding” value is “++”. On to `CC(C)(F)CCN1CCN(C2(C(=O)c3ccccn3)CCOC(C)(C)C2)CC1` (centres unmarked) [Example 117, (4-(4-(3-fluoro-3-methylbutyl)piperazin-1-yl)-2,2-dimethyltetrahydro-2H-pyran-4-yl)(pyridin-2-yl)methanone], for which the Ki (μ and σ1 dual binding) was < 500 nM. With `CC(C)C1(N2CCN(CCc3cccc(F)c3F)CC2)CCOC(C)(C)C1` (centres unmarked) [Example 101, 1-(2,3-difluorophenethyl)-4-(4-isopropyl-2,2-dimethyltetrahydro-2H-pyran-4-yl)piperazine], the “μ and σ1 dual binding” value is recorded as “++”. For the compound `CCC1(C2CCN(Cc3ccccc3)CC2)CCOCC1` [Example 166, 1-benzyl-4-(4-ethyltetrahydro-2H-pyran-4-yl)piperidine], the Ki under setting [1] was > 500 nM. For the compound `CC(C)OCCN1CCN(C2(C)CCOC(C)(C)C2)CC1` (centres unmarked) [Example 37, 1-(2-isopropoxyethyl)-4-(2,2,4-trimethyltetrahydro-2H-pyran-4-yl)piperazine], the “μ and σ1 dual binding” value is given as “++”. On the same count and under the same terms, as for `CC1(C)CC(C(=O)c2ccccn2)(C2CCN(Cc3ccc(F)cc3)CC2)CCO1` (centres unmarked) [Example 109, (4-(1-(4-fluorobenzyl)piperidin-4-yl)-2,2-dimethyltetrahydro-2H-pyran-4-yl)(pyridin-2-yl)methanone], the entry is “++”. Consider `CC(C)C1(N2CCN(CCc3cccc(F)c3)CC2)CCOC(C)(C)C1` (centres unmarked) [Example 91, 1-(3-fluorophenethyl)-4-(4-isopropyl-2,2-dimethyltetrahydro-2H-pyran-4-yl)piperazine], for which the Ki (μ and σ1 dual binding) is < 500 nM. Turning to `CN(Cc1ccccc1)[C@H]1CCN([C@]2(C(=O)c3ccccn3)CCOC(C)(C)C2)C1` [Example 141, ((R)-4-((S)-3-(benzyl(methyl)amino)pyrrolidin-1-yl)-2,2-dimethyltetrahydro-2H-pyran-4-yl)(pyridin-2-yl)methanone], the “μ and σ1 dual binding” value is reported as “++”. Regarding `CC[C@]1(N2CCN(CCOC(C)C)CC2)CCO[C@@H](C)C1` [Example 157, 1-((2S,4S)-4-ethyl-2-methyltetrahydro-2H-pyran-4-yl)-4-(2-isopropoxyethyl)piperazine], the Ki (μ and σ1 dual binding) is < 100 nM. Take `CC1(C)CC(C2CCN(Cc3ccccc3)CC2)(C(O)c2ccccn2)CCO1` (centres unmarked) [Example 131, (4-(1-benzylpiperidin-4-yl)-2,2-dimethyltetrahydro-2H-pyran-4-yl)(pyridin-2-yl)methanol]: the “μ and σ1 dual binding” value is reported as “++”. For the compound `CC[C@]1(N2CCN(Cc3ccc(C#N)cc3)CC2)CCO[C@@H](C)C1` (stereo in doubt) [Example 187, 4-((4-(4-ethyl-2-methyltetrahydro-2H-pyran-4-yl)piperazin-1-yl)methyl)benzonitrile], the Ki under setting [1] was > 500 nM. `CC(C)(F)COCCN1CCN(C2(C(=O)c3ccccn3)CCOC(C)(C)C2)CC1` (centres unmarked) [Example 116, (4-(4-(2-(2-fluoro-2-methylpropoxy)ethyl)piperazin-1-yl)-2,2-dimethyltetrahydro-2H-pyran-4-yl)(pyridin-2-yl)methanone]: under “μ and σ1 dual binding”, the Ki is < 500 nM.

In the case of `CCC1(N2CCN(CCc3cc(F)ccc3F)CC2)CCOC(C)(C)C1` (centres unmarked) [Example 99, 1-(2,5-difluorophenethyl)-4-(4-ethyl-2,2-dimethyltetrahydro-2H-pyran-4-yl)piperazine], under “μ and σ1 dual binding”, the Ki was < 500 nM. Regarding `CC(C)CCN1CCN(C2(C)CCOC(C)(C)C2)CC1` (centres unmarked) [Example 79, 1-isopentyl-4-(2,2,4-trimethyltetrahydro-2H-pyran-4-yl)piperazine], the “μ and σ1 dual binding” value is recorded as “++”. As to `C[C@H]1C[C@](C(=O)c2ccccn2)(C2CCN(Cc3ccccc3)CC2)CCO1` [Example 153], the Ki (μ and σ1 dual binding) was < 500 nM. In the case of `CC[C@@]1(N2CCN(CCC(C)C)CC2)CCO[C@@H](C)C1` [Example 160, 1-((2S,4R)-4-ethyl-2-methyltetrahydro-2H-pyran-4-yl)-4-isopentylpiperazine], the “μ and σ1 dual binding” value is listed as “++”.

Regarding `O=C(c1ccccn1)C1(N2CCN(Cc3ccccc3)CC2)CCOCC1` [Example 8, (4-(4-benzylpiperazin-1-yl)tetrahydro-2H-pyran-4-yl)(pyridin-2-yl)methanone], the “μ and σ1 dual binding” value is “++”. The same measure, in the same setting: under `CC(C)OCCN1CCN(C2(C)CCOCC2)CC1` [Example 184, 1-(2-isopropoxyethyl)-4-(4-methyltetrahydro-2H-pyran-4-yl)piperazine] stands “++”. For the compound `CC(C)OCCCN1CCC(C2(C(=O)c3ccccn3)CCOC(C)(C)C2)CC1` (centres unmarked) [Example 107, (4-(1-(3-isopropoxypropyl)piperidin-4-yl)-2,2-dimethyltetrahydro-2H-pyran-4-yl)(pyridin-2-yl)methanone], the Ki (μ and σ1 dual binding) is > 500 nM. Still for that read-out and setting: as for `CC1(C)CC(C(=O)c2ccccn2)(C2CCN(Cc3ccccc3)CC2)CCO1` (centres unmarked) [Example 22, (4-(1-benzylpiperidin-4-yl)-2,2-dimethyltetrahydro-2H-pyran-4-yl)(pyridin-2-yl)methanone], the figure is < 500 nM. In the case of `CC1(C)CC(C(=O)c2ccccc2)(N2CCN(Cc3ccccc3)CC2)CCO1` (centres unmarked) [Example 9, (4-(4-benzylpiperazin-1-yl)-2,2-dimethyltetrahydro-2H-pyran-4-yl)(phenyl)methanone], the “μ and σ1 dual binding” value is on record as “++”. As for `CC1(C)CC(C(=O)c2ccccn2)(N2CCN(CCc3ncccc3Cl)CC2)CCO1` (centres unmarked) [Example 56, (4-(4-(2-(3-chloropyridin-2-yl)ethyl)piperazin-1-yl)-2,2-dimethyltetrahydro-2H-pyran-4-yl)(pyridin-2-yl)methanone], the Ki under setting [1] is > 500 nM. Consider `CC1(C)CC(C(=O)c2cccnc2)(N2CCN(Cc3ccccc3)CC2)CCO1` (centres unmarked) [Example 10, (4-(4-benzylpiperazin-1-yl)-2,2-dimethyltetrahydro-2H-pyran-4-yl)(pyridin-3-yl)methanone], for which the “μ and σ1 dual binding” value was “++”. Same read-out and setting: as for `CCC1(N2CCN(Cc3ccccc3)CC2)CCOCC1` [Example 31, 1-benzyl-4-(4-ethyltetrahydro-2H-pyran-4yl)piperazine], the entry is “++”. Still for that read-out and setting: under `CC(c1ccc(F)cc1)N1CCN(C2(C(=O)c3ccccn3)CCOC(C)(C)C2)CC1` (centres unmarked) [Example 63, (4-(4-(1-(4-fluorophenyl)ethyl)piperazin-1-yl)-2,2-dimethyltetrahydro-2H-pyran-4-yl)(pyridin-2-yl)methanone] stands “++”.

Turning to `CC(C)OCCN1CCN([C@]2(C(=O)c3ccccn3)CCOC2)CC1` [Example 242, (R)-(3-(4-(2-isopropoxyethyl)piperazin-1-yl)tetrahydrofuran-3-yl)(pyridin-2-yl)methanone], the “μ and σ1 dual binding” value is “++”.
